Reference: patent US7642269B2, “Pyrrolo[3,2-B]pyridine derivatives and processes for the preparation thereof” (Yuhan Corporation, priority 2005, dated 2010)
Counter-ions that a name gives are not always drawn.

Target: T1, H^+/K^+-ATPase (Sus scrofa, UniProt P19156)
T1 construct: used as an enzyme source of the in vitro enzyme reaction assay of proton pump; from tissue; host or cells: hog gastric fundic mucosa (membrane vesicles, lyophilized)
Assay: Inhibitory effects on proton pump (H^+/K^+-ATPase) activity, hog gastric vesicles
Format: biochemical
Conditions: K^+ stimulated H^+/K^+-ATPase activity, hog gastric vesicle, Pi measured at 620 nm
Description: Preparation of Gastric Proton Pump Vesicles
The hog fundic regions containing parietal and peptic cells were scraped with slide-glass. The collected cells were suspended in 10 ml of 0.25M sucrose buffer and homogenized using a tight-fitting Teflon-glass homogenizer. The homogenate was centrifuged for 35 min at 8,000 rpm and the pellet was discarded. The supernatant was further centrifuged for 75 min at 25,000 rpm. The resulting pellets were re-suspended in the sucrose buffer (10 ml), and then the suspension was laid onto discontinuous density gradients consisting of 0.25M sucrose buffer and isolation medium containing 9% Ficoll (w/w). After being centrifuged for 3 hours and 15 minutes at 100,000×g, the material at the interface of sucrose buffer and Ficoll solution was collected and then centrifuged for 40 minutes at 100,000×g. The resulting pellets were re-suspended in 1 ml of 5 mM Hepes/Tris buffer (pH 6.1). This material was lyophilized and stored at −70° C. and used as an enzyme source of the in vitro enzyme reaction assay of proton pump.
1-2. Measurement of Inhibitory Effects on Proton Pump (H+/K+-ATPase) activity
The inhibitory effects of the compounds of the present invention against proton pump activity were evaluated in 96-well plate. In this assay, the K^+ specific H^+/K^+-ATPase activity was calculated based on the difference between the activity of H^+/K^+-ATPase activity with K^+ and without K^+ ion. In 96-well plate, 1% dimethylsulfoxide (DMSO) in buffer was added to negative and positive control groups and the diluted compounds of the present invention in buffer were added to test group. All assays were performed in 100 μl reaction volume at room temperature, and the hog gastric vesicle was kept in ice before use. At the beginning of the reaction, 10 μl of reaction buffer containing 1% DMSO was added to the negative and positive control groups and to each concentration of compounds in the test group. Then lyophilized vesicle in 5 mM Pipes/Tris buffer (pH 6.1) was pre-incubated in the presence of various concentrations of test compounds. After a 5 minute incubation, negative and positive buffers were respectively added to the previous reaction mixture. As the substrate, ATP was added to the reaction buffer, and incubated for 30 minutes at 37° C. Enzymatic activity was stopped by the addition of colorimetric reagent (2× malachite green, 1× ammonium molybdate, 1× polyvinyl alcohol, 2× H2O) and the amount of mono phosphate (Pi) in the reaction was measured at 620 nm using the micro plate reader (Genios Pro, TECAN). The difference between the Pi production with K^+ and without K^+ is taken as K^+ stimulated H^+/K^+-ATPase activity.

T1 sequence (P19156 2-1034 limits assumed): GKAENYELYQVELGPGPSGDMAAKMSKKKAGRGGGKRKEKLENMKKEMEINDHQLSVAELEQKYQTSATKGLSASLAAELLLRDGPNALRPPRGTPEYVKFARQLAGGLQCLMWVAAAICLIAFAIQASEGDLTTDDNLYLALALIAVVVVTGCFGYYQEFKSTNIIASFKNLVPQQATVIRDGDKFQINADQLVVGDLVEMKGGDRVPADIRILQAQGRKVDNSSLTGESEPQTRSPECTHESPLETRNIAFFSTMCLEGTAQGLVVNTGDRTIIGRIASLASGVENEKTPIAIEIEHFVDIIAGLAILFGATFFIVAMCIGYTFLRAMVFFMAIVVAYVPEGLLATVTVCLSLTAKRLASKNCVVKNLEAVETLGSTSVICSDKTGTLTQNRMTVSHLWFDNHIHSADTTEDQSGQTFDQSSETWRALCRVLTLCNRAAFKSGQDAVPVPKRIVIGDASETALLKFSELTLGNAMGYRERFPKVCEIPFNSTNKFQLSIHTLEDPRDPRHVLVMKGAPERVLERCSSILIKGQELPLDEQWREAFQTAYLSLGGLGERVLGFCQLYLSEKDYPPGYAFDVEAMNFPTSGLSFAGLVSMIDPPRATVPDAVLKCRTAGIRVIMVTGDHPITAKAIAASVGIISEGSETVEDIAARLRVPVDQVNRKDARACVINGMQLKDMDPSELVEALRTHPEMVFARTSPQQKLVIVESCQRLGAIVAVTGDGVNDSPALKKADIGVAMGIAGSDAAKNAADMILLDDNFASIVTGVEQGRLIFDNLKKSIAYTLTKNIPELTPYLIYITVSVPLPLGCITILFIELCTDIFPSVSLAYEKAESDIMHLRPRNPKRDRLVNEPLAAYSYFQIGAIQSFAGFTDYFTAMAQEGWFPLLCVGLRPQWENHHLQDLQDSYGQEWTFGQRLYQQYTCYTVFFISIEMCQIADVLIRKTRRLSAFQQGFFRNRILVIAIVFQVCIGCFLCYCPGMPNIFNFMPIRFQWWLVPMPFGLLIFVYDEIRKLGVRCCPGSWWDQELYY
T1 sequence (P18434 whole entry partner): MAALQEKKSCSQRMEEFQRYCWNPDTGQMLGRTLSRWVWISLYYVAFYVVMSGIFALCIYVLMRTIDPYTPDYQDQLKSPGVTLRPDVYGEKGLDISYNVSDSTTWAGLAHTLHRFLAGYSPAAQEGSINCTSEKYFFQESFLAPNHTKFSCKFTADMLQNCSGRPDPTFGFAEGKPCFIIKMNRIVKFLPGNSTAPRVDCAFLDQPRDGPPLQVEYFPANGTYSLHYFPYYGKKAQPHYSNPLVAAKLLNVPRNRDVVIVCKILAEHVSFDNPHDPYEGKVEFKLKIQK

IC50 [nM] | SMILES
630 | COCCn1c(C)c(C)c2nccc(OCc3ccc4c(c3)OCO4)c21 [Example 99, 7-(benzo[1,3]dioxol-5-ylmethoxy)-1-(2-methoxyethyl)-2,3-dimethyl-1H-pyrrolo[3,2-b]pyridine hydrochloride]
60 | COCCn1c(C)c(C)c2nccc(OCc3ccc(F)cc3)c21 [Example 133, 7-(4-fluorobenzyloxy)-1-(2-methoxyethyl)-2,3-dimethyl-1H-pyrrolo[3,2-b]pyridine hydrobromide]
30 | Cc1c(C)n(CC(C)C)c2c(OCc3ccc(Br)cc3)ccnc12 [Example 228, 7-(4-bromobenzyloxy)-1-isobutyl-2,3-dimethyl-1H-pyrrolo[3,2-b]pyridine hydrochloride]
1150 | CCOc1ccccc1COc1ccnc2c(C)c(C)n(CCOC)c12 [Example 162, 7-(2-ethoxybenzyloxy)-1-(2-methoxyethyl)-2,3-dimethyl-1H-pyrrolo[3,2-b]pyridine hydrochloride]
240 | Cc1cccc(COc2ccnc3c(C)c(C)n(Cc4ccccc4)c23)c1 [Example 144, 1-benzyl-2,3-dimethyl-7-(3-methylbenzyloxy)-1H-pyrrolo[3,2-b]pyridine hydrochloride]
60 | CCn1c(C)c(C)c2nccc(OCc3ccc(Cl)cc3Cl)c21 [Example 137, 7-(2,4-dichlorobenzyloxy)-1-ethyl-2,3-dimethyl-1H-pyrrolo[3,2-b]pyridine hydrochloride]
1250 | Cc1c(C)n(CC2CNC(=O)O2)c2c(OCc3ccc(Cl)cc3)ccnc12 (stereo not drawn) [Example 81, 5-[7-(4-chlorobenzyloxy)-2,3-dimethyl-pyrrolo[3,2-b]pyridin-1-ylmethyl]-oxazolidin-2-one hydrochloride]
320 | Cc1c(C)n(CC2CC2)c2c(OCc3ccc4c(c3)OCO4)ccnc12 [Example 121, 7-(benzo[1,3]dioxol-5-ylmethoxy)-1-cyclopropylmethyl-2,3-dimethyl-1H-pyrrolo[3,2-b]pyridine hydrochloride]
140 | CCn1c(C)c(C)c2nccc(OCc3ccc(Cl)cc3)c21 [Example 90, 7-(4-chlorobenzyloxy)-1-ethyl-2,3-dimethyl-1H-pyrrolo[3,2-b]pyridine hydrochloride]
580 | CCOc1ccccc1COc1ccnc2c(C)c(C)n(CC3CC3)c12 [Example 161, 1-cyclopropylmethyl-7-(2-ethoxybenzyloxy)-2,3-dimethyl-1H-pyrrolo[3,2-b]pyridine hydrochloride]
50 | COCCn1c(C)c(C)c2nccc(OCc3ccc(F)cc3)c21 [Example 124, 7-(4-fluorobenzyloxy)-1-(2-methoxyethyl)-2,3-dimethyl-1H-pyrrolo[3,2-b]pyridine benzenesulfonate]
50 | COCCn1c(C)c(C)c2nccc(OCc3ccc(F)cc3)c21 [Example 125, 7-(4-fluorobenzyloxy)-1-(2-methoxyethyl)-2,3-dimethyl-1H-pyrrolo[3,2-b]pyridine p-toluenesulfonate]
160 | Cc1c(C)n(CC2OCCO2)c2c(OCc3ccc(Cl)cc3)ccnc12 [Example 87, 7-(4-chlorobenzyloxy)-1-(1,3-dioxolan-2-ylmethyl)-2,3-dimethyl-1H-pyrrolo[3,2-b]pyridine hydrochloride]
1010 | CCOc1ccccc1COc1ccnc2c(C)c(C)n(CC3CCC3)c12 [Example 163, 1-cyclobutylmethyl-7-(2-ethoxybenzyloxy)-2,3-dimethyl-1H-pyrrolo[3,2-b]pyridine hydrochloride]
570 | CC(C)=CCn1c(C)c(C)c2nccc(OCc3ccc(F)cc3)c21 [Example 56, hydrochloride]
60 | Cc1c(C)n(Cc2ccccc2)c2c(OCc3ccc(Br)cc3)ccnc12 [Example 219, 1-benzyl-7-(4-bromobenzyloxy)-2,3-dimethyl-1H-pyrrolo[3,2-b]pyridine hydrochloride]
20 | COCCn1c(C)c(C)c2nccc(OCc3ccc(F)cc3)c21 [Example 122, 7-(4-fluorobenzyloxy)-1-(2-methoxyethyl)-2,3-dimethyl-1H-pyrrolo[3,2-b]pyridine]
40 | COCCn1c(C)c(C)c2nccc(OCc3ccc(F)cc3)c21 [Example 129, 7-(4-fluorobenzyloxy)-1-(2-methoxyethyl)-2,3-dimethyl-1H-pyrrolo[3,2-b]pyridine phosphate]

The next lines start with the compound.

SMILES | IC50 [nM]
Cc1c(C)n(CCC2OCCO2)c2c(N3CCc4ccccc4C3)ccnc12 [Example 14, 1-[2-(1,3-dioxolan-2-yl)ethyl]-7-(1,2,3,4-tetrahydroisoquinolin-2-yl)-2,3-dimethyl-1H-pyrrolo[3,2-b]pyridine hydrochloride] | 530
COc1ccc(Cn2c(C)c(C)c3nccc(OCc4ccc(F)cc4)c32)cc1 [Example 58, 7-(4-fluorobenzyloxy)-1-(4-methoxybenzyl)-2,3-dimethyl-1H-pyrrolo[3,2-b]pyridine hydrochloride] | 230
Cc1cccc(Cn2c(C)c(C)c3nccc(OCc4ccc5c(c4)OCO5)c32)c1 [Example 113, 7-(benzo[1,3]dioxol-5-ylmethoxy)-2,3-dimethyl-1-(3-methylbenzyl)-1H-pyrrolo[3,2-b]pyridine hydrochloride] | 1420
Cc1c(C)n(Cc2ccc(Cl)cc2)c2c(N3CCc4ccccc4C3)ccnc12 [Example 1, 1-(4-chlorobenzyl)-7-(1,2,3,4-tetrahydroisoquinolin-2-yl)-2,3-dimethyl-1H-pyrrolo[3,2-b]pyridine hydrochloride] | 650
COC(=O)c1ccc(Cn2c(C)c(C)c3nccc(OCc4ccc(F)cc4)c32)cc1 [Example 35, 4-[7-(4-fluorobenzyloxy)-2,3-dimethyl-pyrrolo[3,2-b]pyridin-1-ylmethyl]-benzoic acid methyl ester hydrochloride] | 1090
Cc1c(C)n(Cc2ccc(F)cc2)c2c(OCc3ccc(Cl)cc3Cl)ccnc12 [Example 140, 7-(2,4-dichlorobenzyloxy)-1-(4-fluorobenzyl)-2,3-dimethyl-1H-pyrrolo[3,2-b]pyridine hydrochloride] | 80
Cc1c(C)n(Cc2cccc(F)c2)c2c(OCc3ccc(Cl)cc3)ccnc12 [Example 93, 7-(4-chlorobenzyloxy)-1-(3-fluorobenzyl)-2,3-dimethyl-1H-pyrrolo[3,2-b]pyridine hydrochloride] | 50
Cc1c(C)n(Cc2cccc(F)c2)c2c(OCc3ccc(F)cc3)ccnc12 [Example 40, 1-(3-fluorobenzyl)-7-(4-fluorobenzyloxy)-2,3-dimethyl-1H-pyrrolo[3,2-b]pyridine hydrochloride] | 190
COCCn1c(C)c(C)c2nccc(OCc3cc(F)cc(F)c3)c21 [Example 181, 7-(3,5-difluorobenzyloxy)-1-(2-methoxyethyl)-2,3-dimethyl-1H-pyrrolo[3,2-b]pyridine hydrochloride] | 4710
C=CCn1c(C)c(C)c2nccc(N3CCc4ccccc4C3)c21 [Example 7, 1-allyl-7-(1,2,3,4-tetrahydroisoquinolin-2-yl)-2,3-dimethyl-1H-pyrrolo[3,2-b]pyridine hydrochloride] | 220
Cc1ccc(Cn2c(C)c(C)c3nccc(OCc4ccc(Br)cc4)c32)cc1 [Example 224, 7-(4-bromobenzyloxy)-2,3-dimethyl-1-(4-methylbenzyl)-1H-pyrrolo[3,2-b]pyridine hydrochloride] | 120
Cc1c(C)n(Cc2ccccc2)c2c(N3CCc4ccccc4C3)ccnc12 [Example 6, 1-benzyl-7-(1,2,3,4-tetrahydroisoquinolin-2-yl)-2,3-dimethyl-1H-pyrrolo[3,2-b]pyridine hydrochloride] | 200
COc1cccc(Cn2c(C)c(C)c3nccc(N4CCc5ccccc5C4)c32)c1 [Example 8, 1-(3-methoxybenzyl)-7-(1,2,3,4-tetrahydroisoquinolin-2-yl)-2,3-dimethyl-1H-pyrrolo[3,2-b]pyridine hydrochloride] | 440
Cc1c(C)n(Cc2ccncc2)c2c(OCc3ccc(Cl)cc3)ccnc12 [Example 80, 7-(4-chlorobenzyloxy)-2,3-dimethyl-1-(pyridin-4-ylmethyl)-1H-pyrrolo[3,2-b]pyridine hydrochloride] | 2870
Cc1ccc(Cn2c(C)c(C)c3nccc(OCc4ccc5c(c4)OCO5)c32)cc1 [Example 114, 7-(benzo[1,3]dioxol-5-ylmethoxy)-1-(4-methylbenzyl)-2,3-dimethyl-1H-pyrrolo[3,2-b]pyridine hydrochloride] | 70
